In patent US20220016115A1, “USP19 INHIBITORS FOR USE IN THERAPY” (ALMAC DISCOVERY LIMITED, priority 2018, published 2022):

How the values were obtained:
Assay type in all cases: cell-based
USP19 [1] = target: T1, USP19 (Mus musculus, UniProt Q3UJD6); experiment: Cell target engagement, mouse skeletal muscle cell line
T1 construct: endogenous in cells
T1 sequence (Q3UJD6 1-1360): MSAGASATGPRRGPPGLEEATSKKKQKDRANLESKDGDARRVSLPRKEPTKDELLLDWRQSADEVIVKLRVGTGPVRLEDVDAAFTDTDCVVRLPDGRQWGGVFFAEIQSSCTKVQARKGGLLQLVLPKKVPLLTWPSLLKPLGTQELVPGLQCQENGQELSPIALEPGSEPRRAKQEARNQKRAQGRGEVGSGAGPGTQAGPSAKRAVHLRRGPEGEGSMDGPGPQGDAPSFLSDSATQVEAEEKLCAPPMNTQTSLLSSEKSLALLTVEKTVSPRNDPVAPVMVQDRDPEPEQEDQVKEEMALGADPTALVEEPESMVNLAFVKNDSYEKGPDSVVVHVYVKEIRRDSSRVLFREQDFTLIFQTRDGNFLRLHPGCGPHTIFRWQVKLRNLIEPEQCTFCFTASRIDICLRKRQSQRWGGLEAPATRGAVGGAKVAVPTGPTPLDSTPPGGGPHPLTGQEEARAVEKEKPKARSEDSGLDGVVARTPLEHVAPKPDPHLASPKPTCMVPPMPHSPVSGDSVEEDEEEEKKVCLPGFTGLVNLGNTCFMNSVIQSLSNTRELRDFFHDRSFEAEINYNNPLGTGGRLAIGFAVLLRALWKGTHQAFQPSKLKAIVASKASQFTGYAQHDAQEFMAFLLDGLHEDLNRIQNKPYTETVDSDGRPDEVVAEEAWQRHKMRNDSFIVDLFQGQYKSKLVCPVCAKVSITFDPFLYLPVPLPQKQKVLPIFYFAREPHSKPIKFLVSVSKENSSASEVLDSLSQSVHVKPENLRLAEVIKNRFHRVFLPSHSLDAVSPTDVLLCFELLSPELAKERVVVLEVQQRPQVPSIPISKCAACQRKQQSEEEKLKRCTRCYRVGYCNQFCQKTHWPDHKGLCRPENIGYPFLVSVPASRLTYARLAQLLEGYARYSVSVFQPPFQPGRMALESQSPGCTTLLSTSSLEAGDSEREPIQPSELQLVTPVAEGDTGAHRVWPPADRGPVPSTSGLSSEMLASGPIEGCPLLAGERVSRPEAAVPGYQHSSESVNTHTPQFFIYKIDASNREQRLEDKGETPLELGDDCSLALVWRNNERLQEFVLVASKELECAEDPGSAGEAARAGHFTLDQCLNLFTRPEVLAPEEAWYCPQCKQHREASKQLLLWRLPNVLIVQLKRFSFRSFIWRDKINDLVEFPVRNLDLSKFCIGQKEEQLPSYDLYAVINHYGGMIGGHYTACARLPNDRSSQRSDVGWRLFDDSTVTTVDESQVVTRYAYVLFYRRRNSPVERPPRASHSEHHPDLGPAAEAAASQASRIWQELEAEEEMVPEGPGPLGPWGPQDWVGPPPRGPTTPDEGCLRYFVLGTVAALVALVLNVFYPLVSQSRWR
Procedure: (§1) Cells from a breast cancer cell line, a neuroblastoma cell line and a mouse skeletal muscle cell line were treated with a USP19 inhibitor compound (ADC-141, corresponding to Example 212 provided herein) for 2 hrs, lysed (lysis buffer: 50 mM Tris pH 7.4; 150 mM NaCl; 5 mM MgCl2; 0.5 mM EDTA; 0.5% NP40; 10% Glycerol; 2 mM DTT) and Ubiquitin-propargylamine (Ub-PA; UbiQ) or Ubiquitin-vinyl methyl ester (Ub-VME; Almac Sciences Scotland Limited) was then added. Samples were analysed by western blotting probing for USP19 (EC50 determined by densitometry).

USP19 [2] = target: T2, USP19 (Homo sapiens, UniProt O94966); experiment: Cell target engagement, breast cancer cell line
T2 sequence (O94966 1-1318): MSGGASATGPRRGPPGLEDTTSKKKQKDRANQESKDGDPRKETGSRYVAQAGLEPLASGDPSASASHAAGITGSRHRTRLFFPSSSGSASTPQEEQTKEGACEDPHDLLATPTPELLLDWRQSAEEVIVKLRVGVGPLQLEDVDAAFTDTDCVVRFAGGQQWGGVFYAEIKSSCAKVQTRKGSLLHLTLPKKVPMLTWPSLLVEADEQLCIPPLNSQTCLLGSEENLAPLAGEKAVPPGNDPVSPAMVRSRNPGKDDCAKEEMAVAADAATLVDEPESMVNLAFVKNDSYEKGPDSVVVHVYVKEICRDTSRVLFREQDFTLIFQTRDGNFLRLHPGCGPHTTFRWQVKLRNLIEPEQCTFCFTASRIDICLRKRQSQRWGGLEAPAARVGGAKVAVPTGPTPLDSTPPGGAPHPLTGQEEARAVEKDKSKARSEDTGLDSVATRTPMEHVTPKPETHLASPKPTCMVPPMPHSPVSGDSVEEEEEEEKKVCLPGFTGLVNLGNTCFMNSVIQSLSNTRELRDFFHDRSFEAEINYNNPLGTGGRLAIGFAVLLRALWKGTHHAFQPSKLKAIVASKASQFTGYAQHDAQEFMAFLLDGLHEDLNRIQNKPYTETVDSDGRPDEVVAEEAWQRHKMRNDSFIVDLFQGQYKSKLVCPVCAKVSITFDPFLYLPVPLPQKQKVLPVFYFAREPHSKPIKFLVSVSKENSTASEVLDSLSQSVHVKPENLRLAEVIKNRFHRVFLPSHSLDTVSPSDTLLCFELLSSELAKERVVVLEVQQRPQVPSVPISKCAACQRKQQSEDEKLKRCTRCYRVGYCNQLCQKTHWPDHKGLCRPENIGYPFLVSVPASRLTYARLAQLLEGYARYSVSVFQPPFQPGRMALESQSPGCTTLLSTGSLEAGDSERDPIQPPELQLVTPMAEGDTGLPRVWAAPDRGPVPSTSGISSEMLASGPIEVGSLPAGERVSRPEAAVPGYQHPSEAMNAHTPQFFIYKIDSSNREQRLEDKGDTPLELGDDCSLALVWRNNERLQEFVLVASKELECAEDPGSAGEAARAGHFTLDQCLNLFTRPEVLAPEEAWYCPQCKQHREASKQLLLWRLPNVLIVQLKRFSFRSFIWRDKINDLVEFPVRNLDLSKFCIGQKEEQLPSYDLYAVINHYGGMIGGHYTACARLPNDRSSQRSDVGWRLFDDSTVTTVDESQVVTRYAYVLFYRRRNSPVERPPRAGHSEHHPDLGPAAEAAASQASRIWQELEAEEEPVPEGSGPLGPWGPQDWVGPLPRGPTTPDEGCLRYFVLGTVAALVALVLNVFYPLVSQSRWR
Procedure: as §1

USP19 [3] = target: T2, USP19; experiment: Cell target engagement, neuroblastoma cell line
Procedure: as §1

[4] = 2 hrs treatment, Ub-PA or Ub-VME probe, western blot

**Q.** What does the source list for C[C@H](CC1CCCCC1)C(=O)N1CC[C@@](O)(Cn2cc(C(=O)N3CCNCC3)c(-c3ccccc3)cc2=O)C2(CCCC2)C1 [ADC-141, 1-(((S)-7-((R)-3-Cyclohexyl-2-methylpropanoyl)-10-hydroxy-7-azaspiro[4.5]decan-10-yl)methyl)-4-phenyl-5-(piperazine-1-carbonyl)pyridin-2(1H)-one]?
**A.** cell permeability (USP19 [1]): good cell permeability; EC50 (USP19 target engagement, densitometry) (USP19 [1]; [4]): low nanomolar; cell permeability (USP19 [2]): good cell permeability; EC50 (USP19 target engagement, densitometry) (USP19 [2]; [4]): low nanomolar; cell permeability (USP19 [3]): good cell permeability; EC50 (USP19 target engagement, densitometry) (USP19 [3]; [4]): low nanomolar
